Results taken from patent US7880002B2, “Substituted piperazinyl-pyrrolidine compounds useful as chemokine receptor antagonists” (Millennium Pharmaceuticals, Inc., priority 2004, dated 2011).

molecular target: T1, CCR1 (Homo sapiens, UniProt P32246); assay: CCR1 inhibition (THP-1 FLIPR assay / THP-1 whole cell radioligand binding assay; the patent does not say which gave the values); format: cell-based; details: threshold list, less than 100 nm; compounds of Table 1; read-out: inhibitory activity
T1 construct: a monocytic derived cell line that endogenously expresses CCR1; host or cells: THP-1 cells
T1 sequence (P32246 1-355): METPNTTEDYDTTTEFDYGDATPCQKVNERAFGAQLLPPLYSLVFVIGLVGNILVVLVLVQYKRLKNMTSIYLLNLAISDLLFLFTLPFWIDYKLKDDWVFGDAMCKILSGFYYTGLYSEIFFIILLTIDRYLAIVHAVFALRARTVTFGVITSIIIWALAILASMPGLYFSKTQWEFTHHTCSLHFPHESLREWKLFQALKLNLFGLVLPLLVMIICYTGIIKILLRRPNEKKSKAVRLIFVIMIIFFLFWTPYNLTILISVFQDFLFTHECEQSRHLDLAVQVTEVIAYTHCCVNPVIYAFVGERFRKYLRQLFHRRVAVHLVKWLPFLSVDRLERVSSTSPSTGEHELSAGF
Experimental: The primary screening assay is a FLIPR® (Fluorometric Imaging Plate Reader, available from Molecular Devices Corporation, Sunnyvale, Calif.) assay using THP-1 cells (ATCC, Catalog No. TIB 202), a monocytic derived cell line that endogenously expresses CCR1.
The cells were resuspended at 1×10^6 cells/ml in dye loading media (growth media (RPMI+10% FBS (Fetal Bovine serum)+5.5×10^−5M 2-mercaptoethanol)+10 mM HEPES (N-2-hydroxyethylpiperazine-N′-2-ethane-sulfonic acid)+2.5 mM probenecid+fluo-3 (1:250)). The cells were incubated for 1 hour at 37° C. and then washed in FLIPR wash buffer (100 mL 10× HBSS (Hanks Buffered Saline Solution) (w/Ca++/Mg++)+20 mL 1M HEPES+1 g BSA+10 mL 250 mM probenecid+water (to make 1 L)) and plated at 50,000 cells/well in black/clear 384 well plates. The plates were transferred to FLIPR where the ability of different concentrations of compounds to inhibit RANTES induced calcium flux was assessed. Inhibition of the CCR1 response was reflected by a decrease of the fluorescence signal relative to the positive controls (RANTES alone).
THP-1 Whole Cell Radioligand Binding Assay
The cells were washed with PBS (phosphate buffered saline) and resuspended in binding buffer (10 mM HEPES pH 7.2, 1× HBSS (w/Ca^2+, Mg^2+) 0.5% BSA, 0.02% Na-azide) at 4×10^6 cells/ml (for 200, 000 cells/well). Cells were incubated with 0.1 to 0.2 nM [^125I]-labeled MIP-1α with or without unlabeled competitor (MIP-1α) or various concentrations of compounds for 60 minutes at room temperature. The assay was terminated by vacuum filtration through glass fiber filters (GF/B, Packard) which were presoaked in 0.3% polyethyleneimine. The filters were washed with wash buffer (10 mM HEPES, pH 7.2, 1 mM CaCl2, 5 mM MgCl2 0.5M NaCl), dried and the amount of bound radioactivity was determined by scintillation counting.

IC50, < 100 nM:
O=C(c1ccc(Cl)cc1)N1CCN([C@@H]2CN(c3nc(C(F)(F)F)nc4cnccc34)C[C@H]2O)CC1 (racemic) [Example 137, 4-[4-(4-chlorobenzoyl)piperazin-1-yl]-1-[2-(trifluoromethyl)pyrido[3,4-d]pyrimidin-4-yl]pyrrolidin-3-ol]
O=C(c1ccc(Cl)cc1)N1CCN([C@@H]2CN(c3ncnc4cc(Cl)cnc34)C[C@H]2O)CC1 (racemic) [Example 162, 4-[4-(4-chlorobenzoyl)piperazin-1-yl]-1-(7-chloropyrido[3,2-d]pyrimidin-4-yl)pyrrolidin-3-ol]
O=C(c1ccc(Cl)cc1)N1CCN([C@H]2CN(c3ncnc4cnccc34)C[C@@H]2O)CC1 (racemic) [Example 182, 4-[4-(4-chlorobenzoyl)piperazin-1-yl]-1-pyrido[3,4-d]pyrimidin-4-ylpyrrolidin-3-ol]
COc1cc2c(N3C[C@H](O)[C@@H](N4CCN(C(=O)c5ccc(Cl)cc5)CC4)C3)nc(C(F)(F)F)nc2cn1 (racemic) [Example 183, 4-[4-(4-chlorobenzoyl)piperazin-1-yl]-1-[6-methoxy-2-(trifluoromethyl)pyrido[3,4-d]pyrimidin-4-yl]pyrrolidin-3-ol]
COc1ccc2nc(C(F)(F)F)nc(N3C[C@@H](O)[C@H](N4CCN(C(=O)c5ccc(Cl)cc5)CC4)C3)c2n1 (racemic) [Example 200, 4-[4-(4-chlorobenzoyl)piperazin-1-yl]-1-[6-methoxy-2-(trifluoromethyl)pyrido[3,2-d]pyrimidin-4-yl]pyrrolidin-3-ol]
O=C(c1ccc(Cl)cc1)N1CCN([C@@H]2CN(c3ccnc4cc(Cl)ccc34)C[C@H]2O)CC1 (stereo in doubt) [Example 1, 4-[4-(4-chlorobenzoyl)piperazin-1-yl]-1-(7-chloroquinolin-4-yl)pyrrolidin-3-ol]
O=C(c1ccc(Cl)cc1)N1CCN([C@@H]2CN(c3nccc(C(F)(F)F)n3)C[C@H]2O)CC1 (stereo in doubt) [Example 3, 4-[4-(4-chlorobenzoyl)piperazin-1-yl]-1-[4-(trifluoromethyl)pyrimidin-2-yl]pyrrolidin-3-ol]
O=C(c1ccc(Cl)cc1)N1CCN([C@@H]2CN(c3ncnc4cc(Cl)ccc34)C[C@H]2O)CC1 (stereo in doubt) [Example 23, 4-[4-(4-chlorobenzoyl)piperazin-1-yl]-1-(7-chloroquinazolin-4-yl)pyrrolidin-3-ol]
O=C(c1ccc(Cl)cc1)N1CCN([C@H]2CN(c3cc(C(F)(F)F)nc4c(C(F)(F)F)cccc34)C[C@@H]2O)CC1 (stereo in doubt) [Example 26, 1-[2,8-bis(trifluoromethyl)quinolin-4-yl]-4-[4-(4-chlorobenzoyl)piperazin-1-yl]pyrrolidin-3-ol]
O[C@H]1CN(c2ncnc3cc(Cl)ccc23)C[C@@H]1N1CCC(Oc2ccc(Cl)cc2)CC1 (stereo in doubt) [Example 80, 4-[4-(4-chlorophenoxy)piperidin-1-yl]-1-(7-chloroquinazolin-4-yl)pyrrolidin-3-ol]
O=C(c1ccc(Cl)cc1)N1CCN([C@@H]2CN(c3ncnc4ccc(Cl)cc34)C[C@H]2O)CC1 (stereo in doubt) [Example 81, 4-[4-(4-chlorobenzoyl)piperazin-1-yl]-1-(6-chloroquinazolin-4-yl)pyrrolidin-3-ol]
O=C(c1ccc(Cl)cc1)N1CCN([C@H]2CN(c3ccc4cccc(Cl)c4n3)C[C@@H]2O)CC1 (stereo in doubt) [Example 85, 4-[4-(4-chlorobenzoyl)piperazin-1-yl]-1-(8-chloroquinolin-2-yl)pyrrolidin-3-ol]
O=C(c1ccc(Cl)cc1)N1CCN([C@@H]2CN(c3ncnc4cc(F)ccc34)C[C@H]2O)CC1 (stereo in doubt) [Example 86, 4-[4-(4-chlorobenzoyl)piperazin-1-yl]-1-(7-fluoroquinazolin-4-yl)pyrrolidin-3-ol]
O[C@H]1CN(c2ncnc3cc(Cl)ccc23)C[C@@H]1N1CCN(Cc2ccc(Cl)cc2)CC1 (stereo in doubt) [Example 87, 4-[4-(4-chlorobenzyl)piperazin-1-yl]-1-(7-chloroquinazolin-4-yl)pyrrolidin-3-ol]
O=C(c1ccc(Cl)cc1)N1CCN([C@@H]2CN(c3ncnc4cc(C(F)(F)F)ccc34)C[C@H]2O)CC1 (stereo in doubt) [Example 93, 4-[4-(4-chlorobenzoyl)piperazin-1-yl]-1-[7-(trifluoromethyl)quinazolin-4-yl]pyrrolidin-3-ol]
O=C(c1ccc(Cl)cc1)N1CCN([C@@H]2CN(c3nc(C(F)(F)F)nc4ccccc34)C[C@H]2O)CC1 (stereo in doubt) [Example 94, 4-[4-(4-chlorobenzoyl)piperazin-1-yl]-1-[2-(trifluoromethyl)quinazolin-4-yl]pyrrolidin-3-ol]
O[C@H]1CN(c2nc(C(F)(F)F)nc3ccccc23)C[C@@H]1N1CCN(Cc2ccc(Cl)cc2)CC1 (stereo in doubt) [Example 95, 4-[4-(4-chlorobenzyl)piperazin-1-yl]-1-[2-(trifluoromethyl)quinazolin-4-yl]pyrrolidin-3-ol]
O[C@H]1CN(c2ncnc3cc(C(F)(F)F)ccc23)C[C@@H]1N1CCN(Cc2ccc(Cl)cc2)CC1 (stereo in doubt) [Example 97, 4-[4-(4-chlorobenzyl)piperazin-1-yl]-1-[7-(trifluoromethyl)quinazolin-4-yl]pyrrolidin-3-ol]
O=C(c1ccc(Cl)cc1)N1CCN([C@@H]2CN(c3ncnc4cc(F)c(F)cc34)C[C@H]2O)CC1 (stereo in doubt) [Example 102, 4-[4-(4-chlorobenzoyl)piperazin-1-yl]-1-(6,7-difluoroquinazolin-4-yl)pyrrolidin-3-ol]
O=C(c1ccc(Cl)cc1)N1CCN([C@@H]2CN(c3nc(Nc4ccc(Cl)cc4)cc(C(F)(F)F)n3)C[C@H]2O)CC1 (stereo in doubt) [Example 106, 4-[4-(4-chlorobenzoyl)piperazin-1-yl]-1-[4-[(4-chlorophenyl)amino]-6-(trifluoromethyl)pyrimidin-2-yl]pyrrolidin-3-ol]
Cc1cc(C(F)(F)F)nc(N2C[C@@H](O)[C@H](N3CCN(C(=O)c4ccc(Cl)cc4)CC3)C2)n1 (stereo in doubt) [Example 107, 4-[4-(4-chlorobenzoyl)piperazin-1-yl]-1-[4-methyl-6-(trifluoromethyl)pyrimidin-2-yl]pyrrolidin-3-ol]
Cc1cc(C(F)(F)F)nc(N2C[C@@H](O)[C@H](N3CCN(Cc4ccc(Cl)cc4)CC3)C2)n1 (stereo in doubt) [Example 108, 4-[4-(4-chlorobenzyl)piperazin-1-yl]-1-[4-methyl-6-(trifluoromethyl)pyrimidin-2-yl]pyrrolidin-3-ol]
O=C(c1ccc(Cl)cc1)N1CCN([C@@H]2CN(c3nc(C(F)(F)F)cc(C(F)(F)F)n3)C[C@H]2O)CC1 (stereo in doubt) [Example 109, 1-[4,6-bis(trifluoromethyl)pyrimidin-2-yl]-4-[4-(4-chlorobenzoyl)piperazin-1-yl]pyrrolidin-3-ol]
O=C(c1ccc(Cl)cc1)N1CCN([C@@H]2CN(c3nc(C(F)(F)F)nc4cc(C(F)(F)F)ccc34)C[C@H]2O)CC1 (stereo in doubt) [Example 111, 1-[2,7-bis(trifluoromethyl)quinazolin-4-yl]-4-[4-(4-chlorobenzoyl)piperazin-1-yl]pyrrolidin-3-ol]
O=C(c1ccc(Cl)cc1)N1CCN([C@@H]2CN(c3cc(C(F)(F)F)cc(C(F)(F)F)c3)C[C@H]2O)CC1 (stereo in doubt) [Example 113, 1-[3,5-bis(trifluoromethyl)phenyl]-4-[4-(4-chlorobenzoyl)piperazin-1-yl]pyrrolidin-3-ol]
